Test results taken from article PMC10552397 (Cell Communication and Signaling : CCS, 2023).
Where “and” joins values, the source holds several entries; their conditions need not be identical. Equal values may be shown once.

Key:
[1] = target: T1, proteins of HeLa wt cells (Homo sapiens, UniProt P30837); experiment: biochemical; conditions: for normalized.Reporter.intensity: single replicates n1-n3
T1 sequence (P30837 18-517): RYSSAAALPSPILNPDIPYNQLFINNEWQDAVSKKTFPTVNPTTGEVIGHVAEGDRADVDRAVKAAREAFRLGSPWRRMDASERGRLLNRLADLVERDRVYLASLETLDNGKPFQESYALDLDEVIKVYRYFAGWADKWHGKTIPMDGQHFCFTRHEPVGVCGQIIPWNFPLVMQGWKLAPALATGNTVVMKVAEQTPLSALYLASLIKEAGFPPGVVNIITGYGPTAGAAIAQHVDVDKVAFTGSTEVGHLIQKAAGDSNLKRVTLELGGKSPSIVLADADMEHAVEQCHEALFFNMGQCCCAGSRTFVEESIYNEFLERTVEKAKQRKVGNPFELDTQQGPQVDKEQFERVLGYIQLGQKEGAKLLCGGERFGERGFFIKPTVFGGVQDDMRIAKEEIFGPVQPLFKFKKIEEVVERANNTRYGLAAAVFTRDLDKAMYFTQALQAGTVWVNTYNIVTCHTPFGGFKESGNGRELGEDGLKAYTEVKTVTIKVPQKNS
Method: Adherent cells were washed in the dish once with DPBS and harvested by Trypsin–EDTA (0.25%, Thermo Fisher Scientific, Waltham, MA, USA, #25,200,056) treatment. After addition of 35 mL DPBS, the cells were pelleted by centrifugation (300 rcf, 5 min, 4 °C), and washed twice by re-suspending and pelleting using 45 mL and 1 mL DPBS, respectively, to remove excess trypsin and for transfer into pre-weighed 2 mL Eppendorf tubes to determine the cell pellet wet weights as quality check after centrifugation (300 rcf, 5 min, 4 °C) and complete removal of the supernatant. Cells for TPP-TR were resuspended using 1 mL, and cells for TPP-CCR were resuspended using 0.4 mL ice-cold DPBS, respectively, supplemented with protease inhibitor cocktail (Roche, Basel, Switzerland, #5,892,791,001). […] Cell suspensions were shortly centrifuged (1 s or less) using a benchtop centrifuge to release trapped air and to achieve an even liquid level without pelleting the cells. The samples were then temperature treated by a 7 min pre-incubation at RT, 3 min temperature treatment in the PCR cycler (DNA Engine Tetrad 2, lid temperature 70 °C) at different temperatures (37 °C or 50 °C for TPP-CCR or the temperatures given in Table 2 for TPP-TR) and a 3 min post-incubation at RT in a metal heating block for uniform heat dissipation.
After temperature treatment, samples were supplemented with lysis buffer (final concentrations: 0.36 U/µL benzonase, 1.5 mM MgCl2, 1 mM Na3VO4, 10 mM NaF, 2.5 mM Na4P2O7, 0.8% w/v NP-40) for 1 h on ice. The lysates were cleared from cell debris as well as denatured and precipitated proteins by centrifugation at 20,000 rcf and 4 °C for 30 min. The total protein concentration of the resulting cell extracts containing the fraction of soluble, non-denatured proteins was determined (Pierce 660 nm Protein Assay, BSA as standard). Cell extracts were shock frozen in liquid nitrogen and stored at -80 °C. The three replicates for TPP-TR and TPP-CCR were prepared on consecutive days, respectively. The two (37 °C or 50 °C) x ten (concentrations) x three (replicates) = 60 TPP-CCR samples and two (treatment and control) x ten (temperatures) x three (replicates) = 60 TPP-TR samples were analyzed by LC–MS/MS. GRASP55 was additionally quantified from the TPP-TR samples by immunoblotting as described in the respective section.
For TPP-CCR, SP3 was performed as described with slight modifications to the original protocol using on average 5 µg total protein per sample and resulting in theoretically 5 µg peptides in 22 µL 50 mM triethylammonium bicarbonate per sample. For each of the two (treatment and control) x three (replicates) = six TPP-TR temperature treatment sample sets, the same volume for each of the ten temperature samples was used for SP3 processing, thus, maintaining the information about the temperature dependent non-denatured protein content. This volume was calculated such that the lowest two temperature samples (36.5 °C and 41.2 °C) contained 10 µg total protein on average. The samples were diluted using SDS containing buffer (20 µL final, final concentrations: 7.5% glycerol, 3% SDS, 37.5 mM Tris/HCl pH 7.0) and the proteins were reduced, alkylated, and precipitated on the solid phase as described using adjusted volumes (2 × due to processing 10 µg instead of 5 µg). Volumes for washing of the aggregated proteins on the solid phase and for tryptic digestion were kept unchanged, however, to maintain the maximal total protein to trypsin/Lys-C ratio at 50:1 in the two rounds of digestion (13 h and 4 h), respectively, 2 × 0.2 µg trypsin/Lys-C was used per sample, theoretically resulting in at most about 10 µg peptides in 22 µL 50 mM triethylammonium bicarbonate.

[2] = test system: HeLa wt cells; experiment: BFA washout assay (Golgi reassembly, TGN46 and B4GALT1 staining); format: cell-based; conditions: 120 min washout
Method: For BFA washout assays, HeLa wt cells were seeded on glass coverslips in 24-well plates. […] After 24 h, the treatment medium was removed, cells were washed once with DPBS and then treated with 5 µg/mL BFA or 0.1% DMSO as a control for 2 h. Cells were then washed with DPBS four times and incubated with fresh culture medium for 0/15/30/45/60/120 min. After the respective BFA washout time, cells were fixed in ice-cold methanol for 15 min on ice, washed three times with DPBS and blocked in 3% BSA (Roth, Karlsruhe, Germany, #8076) overnight. Samples were incubated with primary antibodies diluted in 3% BSA for 2 h and then washed three times with DPBS, incubated with the appropriate secondary antibodies diluted in 3% BSA for 30 min and washed three times with DPBS. Afterwards, cells were embedded in ProLong Glass Antifade Mountant (Thermo Fisher Scientific, Waltham, MA, USA, #P36980) containing 1 µg/mL DAPI (Roth, Karlsruhe, Germany, #6335.1). Images were recorded with an Axio Observer 7 fluorescence microscope (Carl Zeiss Microscopy, Oberkochen, Germany) using a 40x/1,4 Oil DIC M27 Plan-Apochromat objective (Carl Zeiss Microscopy, Oberkochen, Germany) and an ApoTome 2 (Carl Zeiss Microscopy, Oberkochen, Germany).

## CCCCCC1=C/C(=C/c2[nH]c(-c3ccc[nH]3)cc2OC)N=C1C [Prodigiosin, prodigiosin]
[1]
  EC50: 4.37 nM
[1]; ALDH1B1
  diff pseudoR2(50-37°C): 0.88
[1]; ALDH1B1, 37°C
  pseudoR2 (dose response curve fit, 37°C): 0.0136
[1]; ALDH1B1, 37°C, 0.0976562 nM prodigiosin
  normalized.Reporter.intensity: -0.04 and -1.95 and 1.19
[1]; ALDH1B1, 37°C, 0.390625 nM prodigiosin
  normalized.Reporter.intensity: 0.86 and 1.70 and 1.19
[1]; ALDH1B1, 37°C, 1.5625 nM prodigiosin
  normalized.Reporter.intensity: 1.45 and -0.51 and 0.96
[1]; ALDH1B1, 37°C, 6.25 nM prodigiosin
  normalized.Reporter.intensity: 2.17 and -0.34 and 2.41
[1]; ALDH1B1, 37°C, 25 nM prodigiosin
  normalized.Reporter.intensity: 1.79 and 0.42 and 0.87
[1]; ALDH1B1, 37°C, 100 nM prodigiosin
  normalized.Reporter.intensity: -0.83 and -1.09 and 2.36
[1]; ALDH1B1, 37°C, 400 nM prodigiosin
  normalized.Reporter.intensity: -1.07 and -1.13 and 1.65
[1]; ALDH1B1, 37°C, 1600 nM prodigiosin
  normalized.Reporter.intensity: -1.06 and 0.17 and 2.67
[1]; ALDH1B1, 37°C, 6400 nM prodigiosin
  normalized.Reporter.intensity: -0.10 and 1.67 and -1.95
[1]; ALDH1B1, 37°C, Hill slope of fit
  H (dose response curve fit parameters, 37°C): 1.47e-8
[1]; ALDH1B1, 50°C
  pseudoR2 (dose response curve fit, 50°C): 0.89
[1]; ALDH1B1, 50°C, 0.0976562 nM prodigiosin
  normalized.Reporter.intensity: 0.23 and -0.0339 and 0.17
[1]; ALDH1B1, 50°C, 0.390625 nM prodigiosin
  normalized.Reporter.intensity: 0.32 and 0.04 and 0.17
[1]; ALDH1B1, 50°C, 1.5625 nM prodigiosin
  normalized.Reporter.intensity: 0.40 and 0.42 and 0.21
[1]; ALDH1B1, 50°C, 6.25 nM prodigiosin
  normalized.Reporter.intensity: 0.69 and 0.56 and 0.41
[1]; ALDH1B1, 50°C, 25 nM prodigiosin
  normalized.Reporter.intensity: 0.66 and 0.74 and 0.67
[1]; ALDH1B1, 50°C, 100 nM prodigiosin
  normalized.Reporter.intensity: 1.06 and 0.92 and 1.01
[1]; ALDH1B1, 50°C, 400 nM prodigiosin
  normalized.Reporter.intensity: 0.70 and 0.97 (2×)
[1]; ALDH1B1, 50°C, 1600 nM prodigiosin
  normalized.Reporter.intensity: 0.78 and 0.95 and 0.92
[1]; ALDH1B1, 50°C, 6400 nM prodigiosin
  normalized.Reporter.intensity: 1.11 and 0.90 and 1.01
[1]; ALDH1B1, 50°C, Hill slope of fit
  H (dose response curve fit parameters, 50°C): 0.60
[2]; 10 nM pre-treatment 24 h
  Golgi reassembly during BFA washout: fully reformed Golgi complex
[2]; 100 nM pre-treatment 24 h
  Golgi reassembly during BFA washout: severely disturbed Golgi reassembly
